In experiment [1] the test system is T1, tubulin.
T1 construct: fused on or other part: rhodamine label on part of the tubulin (a fluorescent tracer, not a protein)
The experiment is described as follows: In vitro microtubule disassembly assay. In kind it is biochemical. As to conditions: tubulin and rhodamine-tubulin, 37° C. for 20 minutes, fluorescence microscopy. As to the method:
In Vitro Microtubule Disassembly Assay
Reagent A was made by mixing 250 mg/25 mL tubulin and rhodamine-tubulin (60 mg/6 mL), purchased from Cytoskeleton, with 20 mL, 10 mM GTP at 0° C. Reagent B was made by dissolving the compounds (various concentrations, 2 mL in DMSO) in 2×assay buffer (200 mL, 80 mM K PIPES (pH 7.5), 5 mM MgCl2, 1 mM EDTA). Two mL of Reagent A and two mL of Reagent B were mixed in a […] and incubated at 37° C. for 20 minutes. Then, 100 uL of 60% glycerol was added and mixed by gently pipetting the mixture up and down three times. Two uL of the mixture was placed onto a glass slide, covered with a coverslip, and observed by fluorescence microscopy (400×magnification, rhodamine channel).

The test system of experiment [2] is Human U937 leukemia cells. The experiment can be described thus: Growth inhibition of cancer cells (MTS). In kind it is cell-based. The note with it: 490 nm, read-out: IC50 (Cancer cell growth inhibition). As to the method:
Growth Inhibition of Cancer Cells
Human U937 leukemia cells were obtained from ATCC. Cells were grown in proliferation media (RPMI-1640 plus 2.38 g/L HEPES, 4.5 g/L glucose, 1.5 g/L NaHCO3, 0.3 g/L Glutamine, 0.11 g Na Pyruvate) plus 20% fetal calf serum. Cells were kept at 37° C., 5% CO2, at a concentration of 0.2-1×10^6 cells/ml. To a 100 μl cell suspension in 96-well plate (1×10^4 cells/well), 20 μl of MTS tetrazolium reagent solution (Promega) in RPMI -1640 medium was added for 2 hours at 37° C. in a 5% CO2 atmosphere. After the incubation period, the reduced formazan product was measured at 490 nm using a plate reader.

The mark [3] stands for this setting: Homo sapiens, U-937, MTS tetrazolium reagent.

pIC50: −log10 of the molar value. Read-outs that look alike come from different tables or passages of the source. Where only a bound is given, the exact number is not on record here.

As usually defined, the pIC50 is −log10 of the IC50, conventionally taken in molar units. Take `COc1ccc(CNc2nc(NCc3ccc(OC)cc3)nc(NC3CCCC3)n2)cc1` [Compound S1]: the negative-log IC50 (pIC50) in experiment [1] is 5.10; in experiment [2] (setting [3]), 5.00.
Consider `COc1ccc(CNc2nc(NCc3ccc(OC)cc3)nc(NCC3CCCO3)n2)cc1` (stereo not drawn) [Compound S17], for which the negative-log IC50 (pIC50) in experiment [1] is more than 4.70; in experiment [2] (setting [3]), 5.00.
The corresponding values for `COc1ccc(CNc2nc(NCc3ccc(OC)cc3)nc(NC3CC3)n2)cc1` [Compound S22] are more than 4.70 and 4.60.
As for `CCC(C)Nc1nc(NCc2ccc(OC)cc2)nc(NCc2ccc(OC)cc2)n1` (stereo not drawn) [Compound S25], the pIC50 in experiment [1] is more than 4.70; in experiment [2] (setting [3]), 4.60.
`CNc1nc(NCc2ccc(OC)cc2)nc(NCc2ccc(OC)cc2)n1` [Compound S33]: the negative-log IC50 (pIC50) in experiment [1] is more than 4.70; in experiment [2] (setting [3]) it was 4.74.
Taken in the same sequence, the figures for `COc1ccc(CNc2nc(NCCO)nc(NCc3ccc(OC)cc3)n2)cc1` [Compound S34] were more than 4.70 and 4.70.
The corresponding values for `COc1ccc(CNc2nc(NCc3ccc(OC)cc3)nc(NC3CCC3)n2)cc1` [Compound S43] are more than 4.70 and 4.92.
Taken in the same sequence, the figures for `CCNc1nc(NCc2ccc(OC)cc2)nc(NCc2ccc(OC)cc2)n1` [Compound S51] were more than 4.70 and 4.70.
On to `COc1ccc(CNc2nc(NCc3ccc(OC)c(OC)c3)nc(NC3CCCCC3)n2)cc1` [Compound S53], for which the pIC50 in experiment [1] was 5.60; in experiment [2] (setting [3]) it was 6.00.
With `COc1ccc(CNc2nc(NCc3ccc(OC)cc3)nc(NC3CCCCC3)n2)cc1` [Compound S77, N-Cyclohexyl-N′,N″-bis-(4-methoxybenzyl)-[1,3,5]Triazine-2,4,6-triamine], the pIC50 in experiment [1] was more than 4.70; in experiment [2] (setting [3]) it was 5.30.
As to `COc1ccc(CNc2nc(NCc3ccc(OC)cc3)nc(N3CCOCC3)n2)cc1` [Compound S78, N′,N″-Bis-(4-methoxybenzyl)-6-morpholin-4-yl-[1,3,5]Triazine-2,4-diamine], the results for the negative-log IC50 (pIC50) in experiment [1] and in experiment [2] (MTS tetrazolium reagent) were more than 4.70 and 4.92, respectively.
Consider `COc1ccc(CNc2nc(NCc3ccc(OC)cc3)nc(NC(C)C)n2)cc1` [Compound S84, N-Isopropyl-N′,N″-bis-(4-methoxybenzyl)-[1,3,5]Triazine-2,4,6-triamine], for which the pIC50 was more than 4.70 in experiment [1] and 5.05 in experiment [2] (setting [3]).
